Earlier results on one molecule are cited in patent US20210069354A1, “METHOD OF TRANSPORTING AN AGENT ACROSS BLOOD-BRAIN, BLOOD-COCHLEAR OR BLOOD-CEREBROSPINAL FLUID BARRIER” (Oklahoma Medical Research Foundation, priority 2015, published 2021).

The conditions of the series: normal brain.

Take `O=C([O-])CN(CCN(CC(=O)[O-])CC(=O)O)CCN(CC(=O)[O-])CC(=O)O.[Gd+3]` [Gd-DTPA, gadolinium diethylene triamine penta acetic acid]: the “crossing of the BBB” value is “does not cross the BBB”.
